Key:
[1] = Solubility (analysis data); format: physicochemical
[2] = test system: Endothelial cells derived from human umbilical vein (HUVEC); experiment: Inhibitory effect of growth of endothelial cells (MTT method); format: cell-based; conditions: three days
Description: Endothelial cells derived from human umbilical vein (HUVEC; manufactured by Sanko Junyaku) incubated in an EGM medium (manufactured by Sanko Junyaku) were adjusted to 1×10^4 cells/ml and each 100 μl were separately placed on a 96-well plate. After incubating overnight, 100 μl of medium containing sample were added thereto followed by incubating for three days. The cell numbers at that time were measured by MTT method. That is, 50 μl of PBS solution containing 0.33% of 3-(4,5-dimethylthiazol-2-yl)-2,5-diphenyltetrazolium bromide (MTT) was added thereto and incubation was continued for further 3-4 hours. After the supernatant liquid of the culture was removed, 100 μl of DMSO was added to dissolve a formazane which was formed in the cells and the absorbance at the wave length of 460 nm was measured by use of plate reader. The IC50 value is defined as a concentration that the absorbance was 50% of that observed when no sample was added.

aorta pieces of rat = experiment: Inhibition of capillary formation in rat aorta model (aorta pieces cultured in collagen gel); format: cell-based; conditions: 7th day from addition of sample
Description: In a method of screening the antiangiogenic effect, the degree of inhibition to the formation of lumens observed when an aortic fragment of a rat is cultured in a collagen gel was selected as an indicator (Nicosia R. F., Lab. Invest., 63, 115, 1990). Also, for the purpose of analyzing the mechanism of action of the antiangiogenic effect of the resulting compound, measurements were made concerning the effect of inhibiting the growth of endothelial cells by using endothelial cells derived from the human umbilical cord vein and the effect of inhibiting the expression of an adhesion molecules on endothelial cells.
The antiangiogenic potency was evaluated by the inhibition of capillary formation in rat aorta model in which aorta pieces of rat were cultured in collagen gel. That is, the aorta excised from male rat of Sprague-Dawley strain (8-12 weeks age) was washed with a Hanks' solution so that fat tissues around there were removed minutely. The aorta was incised to prepare pieces of 2 mm square and they were allowed to stand in a 24-well plate holding the endothelial cells upside. Then, 500 μl of neutralized Type I collagen (Cell Matrix Type I-A; manufactured by Nitta Gelatin) were poured over each well and allowed to stand at room temperature for about 20 minutes in a clean bench to solidify the gel. After gelling, 500 μl of MCDB 131 medium (manufactured by Chlorella Kogyo) were added thereto followed by incubating in a Co2 incubator (5% CO2) at 37° C. On the next day, the culture medium was exchanged with 500 μl of MCDB 131 medium containing the sample and the incubation was continued. And, at the stage of the 7th day from the addition of the sample, numbers of capillaries formed around the aorta were counted. The IC50 value of each sample is defined as a concentration that the number of blood capillaries is 50% of that observed when no sample was added.

VCAM-1 = experiment: Inhibition of TNFα-induced expression of adhesion molecule VCAM-1 on endothelial cells; format: cell-based, human; conditions: HUVEC, TNFα 1 ng/ml, 4 hours
Description: (§1) Endothelial cells derived from human umbilical vein (HUVEC) were cultured on a 96-well plate until they were fallen in a confluent state. The culture broth was removed. After 150 μl of a new culture broth was added to each well, 20 μl of a sample solution was added thereto. After 15 minutes, 30 μl of TNFα was added such that the final concentration became 1 ng/ml and it was incubated at 37° C. for 4 hours in a 5% CO2 incubator. Next, the culture broth was removed and the cells were washed twice with a phosphate buffer (PBS). Further, a PBS solution containing 0.025% glutaraldehyde was added and the well was allowed to stand at room temperature for 6 minutes to fix the cells. After the cells were immobilized, they were washed twice with 200 μl of phosphate buffer (PBSA) containing 0.25% BSA. Thereafter 100 μl of a PBSA solution containing 1 μg/ml of mouse anti-human VCAM-1 (R&D systems) or a mouse anti-human E-selectin antibody (R&D systems) was added to each well. The well was allowed to stand at room temperature for 30 minutes and then the cells were again washed. A PBSA solution containing 100 μl of peroxidase-conjugated goat anti-mouse antibody (Cosmo Bio Co., Ltd.) was added to the well. Then the well was allowed to stand at room temperature for 30 minutes and thereafter the cells were washed. In succession, 100 μl of 3,3*,5,5*-tetramethylbenzyidine (TMB) substrate solution was added to develop a color. Next, the coloring was stopped by 100 μl of 1M phosphoric acid to measure the absorbance at 450 nm.

E-selectin = experiment: Inhibition of TNFα-induced expression of adhesion molecule E-selectin on endothelial cells; format: cell-based, human; conditions: HUVEC, TNFα 1 ng/ml, 4 hours
Description: as §1

[3] = Safety of VD1207 analogues, intraperitoneal administration over 4 days; format: in vivo; set-up: key to Blood (WBC) / Blood (PLAT) / Biochemistry (UN) / Biochemistry (GPT) / Weight (liver) / Weight (kidney) / Weight (lung) / Weight (spleen) / Body weight / Blood (RBC): —: “-” indicates no abnormality; “↑” and “↓” indicate an increase and a decrease, respectively; “↑” and “↓” indicate an increase and a decrease, respectively
Description: Each of VD1207B, C, D, E, F and G2 was continuously administered intraperitoneally at each dose of 1 mg/kg and 2 mg/kg over 4 days to examine the safety of VD1207 analogues.

[4] = 1 mg/kg i.p. 4 days, listed as B
[5] = 2 mg/kg i.p. 4 days, listed as B
[6] = 2 mg/kg i.p. 4 days, listed as E
[7] = 2 mg/kg i.p. 4 days, listed as F

Structure (SMILES) | Solubility in ethyl acetate, chloroform and dimethyl sulfoxide [1] | Solubility in neutral water [1] | IC50 (number of blood capillaries 50% of that without sample) (aorta pieces of rat) [µg/mL] | VCAM-1 (IC50 of expression) (VCAM-1) [µg/mL] | Biochemistry (GPT) ([3]; 1 mg/kg i.p. 4 days) | Biochemistry (UN) ([3]; 1 mg/kg i.p. 4 days) | Blood (PLAT) ([3]; 1 mg/kg i.p. 4 days) | Blood (RBC) ([3]; 1 mg/kg i.p. 4 days) | Blood (WBC) ([3]; 1 mg/kg i.p. 4 days) | Body weight ([3]; 1 mg/kg i.p. 4 days) | Weight (liver) ([3]; 1 mg/kg i.p. 4 days) | Weight (spleen) ([3]; 1 mg/kg i.p. 4 days) | Biochemistry (GPT) ([3]; 2 mg/kg i.p. 4 days) | Biochemistry (UN) ([3]; 2 mg/kg i.p. 4 days) | Blood (RBC) ([3]; 2 mg/kg i.p. 4 days) | Blood (WBC) ([3]; 2 mg/kg i.p. 4 days) | Weight (liver) ([3]; 2 mg/kg i.p. 4 days) | Weight (spleen) ([3]; 2 mg/kg i.p. 4 days) | Weight (lung) ([3]; 1 mg/kg i.p. 4 days) | IC50 (growth of endothelial cells, absorbance 50% of no sample) [2] [µg/mL] | further results
CCC1OC12C(O)CC(C(CC(C)C)C(=O)c1cc(C(=O)C(C)C)c(O)cc1O)OC2O (single isomer, unassigned) [VD1207 A1] | soluble | insoluble |  |  |  |  |  |  |  |  |  |  |  |  |  |  |  |  |  |  | IC50 (growth of endothelial cells, absorbance 50% of no sample) ([2]; listed as A1): 17.6 µg/mL
CCC1OC12C(O)CC(C(CC(C)C)C(=O)c1cc(C(=O)C(C)C)c(O)cc1O)OC2O (single isomer, unassigned) [VD1207 A2] | soluble | insoluble | 1 |  |  |  |  |  |  |  |  |  |  |  |  |  |  |  |  |  | IC50 (growth of endothelial cells, absorbance 50% of no sample) ([2]; listed as A2): 18.7 µg/mL
CCCC(C(=O)c1cc(C(OC)C(C)C)c(O)c(C=O)c1O)C1CC(O)C2(OC2CC)C(O)O1 (single isomer, unassigned) [VD1207 B] | soluble | insoluble |  | 2.48 | — | — | — | — | — | — | ↑ | — | — | — | — | — | ↑ | — |  |  | IC50 (number of blood capillaries 50% of that without sample) (aorta pieces of rat; listed as B): 0.053 µg/mL; E-select (IC50 of expression) (E-selectin): 4.0 µg/mL; Weight (kidney) [3, 4]: —; Weight (lung) [3, 4]: —; Blood (PLAT) [3, 5]: —; Body weight [3, 5]: —; Weight (kidney) [3, 5]: —; Weight (lung) [3, 5]: —; IC50 (growth of endothelial cells, absorbance 50% of no sample) ([2]; listed as B): 0.24 µg/mL
CCC1OC12C(O)CC(C(CC(C)C)C(=O)c1cc(C(OC)C(C)C)c(O)c(C=O)c1O)OC2O (single isomer, unassigned) [VD1207 E] | soluble | insoluble |  |  | — | — | — | — | — | — | ↑ | — |  |  |  | ↓ |  |  | — |  | VCAM-1 (IC50 of expression) (VCAM-1; listed as E): 2.59 µg/mL; IC50 (number of blood capillaries 50% of that without sample) (aorta pieces of rat; listed as E): 0.047 µg/mL; E-select (IC50 of expression) (E-selectin; listed as E): 4.44 µg/mL; Weight (kidney) ([3]; 1 mg/kg i.p. 4 days, listed as E): —; Weight (kidney) [3, 6]: —; Weight (lung) [3, 6]: —; IC50 (growth of endothelial cells, absorbance 50% of no sample) ([2]; listed as E): 0.21 µg/mL
CCC1OC12C(O)CC(C(CC(C)C)C(=O)c1cc(C(OC)C(C)C)c(O)c(C=O)c1O)OC2O (single isomer, unassigned) [VD1207 F] | soluble | insoluble |  |  |  |  |  |  | — |  |  |  | — | — | — | ↓ | ↑ | — | — |  | VCAM-1 (IC50 of expression) (VCAM-1; listed as F): <0.63 µg/mL; IC50 (number of blood capillaries 50% of that without sample) (aorta pieces of rat; listed as F): 0.067 µg/mL; E-select (IC50 of expression) (E-selectin; listed as F): 0.84 µg/mL; Weight of each of the liver, kidney and lung (autoptic findings) ([3]; 1 mg/kg and 2 mg/kg i.p. 4 days): increase; Weight (kidney) ([3]; 1 mg/kg i.p. 4 days, listed as F): ↑; Blood (PLAT) ([3]; 2 mg/kg i.p. 4 days): —; Body weight ([3]; 2 mg/kg i.p. 4 days): —; Weight (kidney) [3, 7]: ↑; Weight (lung) [3, 7]: ↑; IC50 (growth of endothelial cells, absorbance 50% of no sample) ([2]; listed as F): 0.06 µg/mL
CCCC(C(=O)c1cc(CC(C)C)c(O)c(C=O)c1O)C1CC(O)C2(OC2CC)C(O)O1 (stereo not drawn) [VD1207 D] | soluble | insoluble | 0.019 | 1.11 | — | — | — | — | — | — | ↑ | — | — | — | — | — | ↑ | — | — | 0.18 | E-select (IC50 of expression) (E-selectin): 1.40 µg/mL; Weight (kidney) ([3]; 1 mg/kg i.p. 4 days): —; Blood (PLAT) ([3]; 2 mg/kg i.p. 4 days): —; Body weight ([3]; 2 mg/kg i.p. 4 days): —; Weight (kidney) ([3]; 2 mg/kg i.p. 4 days): —; Weight (lung) ([3]; 2 mg/kg i.p. 4 days): —
CCCC(C(=O)c1cc(CC(C)C)c(O)c(C=O)c1O)C1CC(O)C2(OC2CCC)C(O)O1 (stereo not drawn) [VD1207 G1] | soluble | insoluble | 0.070 |  |  |  |  |  |  |  |  |  |  |  |  |  |  |  |  | 0.11 | 
CCC1OC12C(O)CC(C(CC(C)C)C(=O)c1cc(CC(C)C)c(O)c(C=O)c1O)OC2O (stereo not drawn) [VD1207 G2] | soluble | insoluble | 0.034 |  | — | — | — | — | — | — | ↑ | — | — | — | — | ↓ | ↑ | — | — | 0.07 | Weight (kidney) ([3]; 1 mg/kg i.p. 4 days): —; Blood (PLAT) ([3]; 2 mg/kg i.p. 4 days): —; Body weight ([3]; 2 mg/kg i.p. 4 days): —; Weight (kidney) ([3]; 2 mg/kg i.p. 4 days): —; Weight (lung) ([3]; 2 mg/kg i.p. 4 days): —
CCCC(C(=O)c1cc(CC(C)C)c(O)c(C(C)=O)c1O)C1CC(O)C2(OC2CC)C(O)O1 (stereo not drawn) [VD1207 H] | soluble | insoluble | 0.38 | 1.06 |  |  |  |  |  |  |  |  |  |  |  |  |  |  |  | 0.52 | E-select (IC50 of expression) (E-selectin): 2.48 µg/mL

Reference: US6645996B1, “Physiologically active substances” (Mercian Corporation and Eisai Co., Ltd., priority 1998, dated 2003)
